Experiment: In vitro half-life
Assay type: in vitro ADME
From the text: The safety profile of TH9507 is generally good.

- half-life: 33.6 min
Structure (SMILES): CC[C@H](C)[C@H](NC(=O)[C@H](C)NC(=O)[C@H](CC(=O)O)NC(=O)[C@H](C)NC(=O)[C@@H](N)Cc1ccc(O)cc1)C(=O)N[C@@H](Cc1ccccc1)C(=O)N[C@H](C(=O)N[C@@H](CC(N)=O)C(=O)N[C@@H](CO)C(=O)N[C@@H](Cc1ccc(O)cc1)C(=O)N[C@@H](CCCNC(=N)N)C(=O)N[C@@H](CCCCN)C(=O)N[C@H](C(=O)N[C@@H](CC(C)C)C(=O)NCC(=O)N[C@@H](CCC(N)=O)C(=O)N[C@@H](CC(C)C)C(=O)N[C@@H](CO)C(=O)N[C@@H](C)C(=O)N[C@@H](CCCNC(=N)N)C(=O)N[C@@H](CCCCN)C(=O)N[C@@H](CC(C)C)C(=O)N[C@@H](CC(C)C)C(=O)N[C@@H](CCC(N)=O)C(=O)N[C@@H](CC(=O)O)C(=O)N[C@H](C(=O)N[C@@H](CCSC)C(=O)N[C@@H](CO)C(=O)N[C@@H](CCCNC(=N)N)C(=O)N[C@@H](CCC(N)=O)C(=O)N[C@@H](CCC(N)=O)C(=O)NCC(=O)N[C@@H](CCC(=O)O)C(=O)N[C@@H](CO)C(=O)N[C@@H](CC(N)=O)C(=O)N[C@@H](CCC(N)=O)C(=O)N[C@@H](CCC(=O)O)C(=O)N[C@@H](CCCNC(=N)N)C(=O)NCC(=O)N[C@@H](C)C(=O)N[C@@H](CCCNC(=N)N)C(=O)N[C@@H](C)C(=O)N[C@@H](CCCNC(=N)N)C(=O)N[C@@H](CC(C)C)C(N)=O)[C@@H](C)CC)C(C)C)[C@@H](C)O [hGRF, hGRF(1-44)NH2, reference compound]

From patent publication US8481489B2, “GH secretagogues and uses thereof” (Theratechnologies Inc., priority 2003, dated 2013)
